Experimental data: patent EP0118205A1, “(5-(2-Aminomethyl-imidazol-1-yl)-1,3-dialkyl-1H-pyrazol-4-yl)(aryl)methanones and processes for their production” (WARNER-LAMBERT COMPANY, priority 1983, dated 1984)
Where a name gives a salt, the structure may show the parent alone.

Tested on: amnesia produced by an electroconvulsive shock
Test: Reversal of amnesia produced by electroconvulsive shock (shelf-box foot shock memory test)
Format: in vivo, male mice (Carworth, CF-1 strain)
Details: mice, oral
Method: The effectiveness of the aforementioned compounds is determined by the test given below which is designed to show the compound's ability to reverse amnesia produced by an electroconvulsive shock.
One hundred male mice (Carworth, CF-1 strain, 19-21 g at time of shipment) are divided into five groups of 20 mice each. Each mouse is placed, one at a time, on a small shelf attached to the outside wall of a test box. In this position the mouse is suspended in space. Therefore, the mouse is motivated to step from the shelf through a conveniently placed small hole into the interior of the box. As soon as the mouse has all four feet within the semidarkened interior of the box, the grid floor of the box is electrified (1.5 milliamps, 3 second duration) to produce a strong pain-fear reaction from the animal. About five seconds thereafter, the mouse is removed from the test box and placed in a group holding cage.
Two hours after the above training, the mice are given a single electroconvulsive shock produced by 20 milliamps delivered for 1.0 seconds through the ears. Immediately thereafter, the mice are returned to the holding cage.
Two hours after the convulsive treatment, the mice are administered orally through a […] with the chemical being assessed. Usually three doses of the chemical will be tested at a time.
One hour after the drug treatment, the mice are tested for memory of the painful foot shock received within the shelf-box apparatus. This testing is accomplished by once again placing each mouse on the small shelf attached to the test box. Any mouse that stays on the shelf for 60 seconds without entering the box is counted as remembering the painful foot shock received within the box five hours earlier. Any mouse entering the box within the 60-second period is counted as having amnesia for the painful event.
The five groups of mice are treated as follows:
The percentage of amnesia reversal is determined as follows for each drug group: [formula]
The following table reports the percent of amnesia reversal of orally administered [(5-(2-aminomethyl)-5-methyl-lH- imidazol-1-yl)-1,3-dimethyl-lH-pyrazol-4-yi](2-chlorophenyl)methanone dihydrochloride.

Row | SMILES | Percent Amnesia Reversal (dose 1 mg/kg) [%] | Percent Amnesia Reversal (dose 10 mg/kg) [%] | Percent Amnesia Reversal (dose 100 mg/kg) [%] | Percent Amnesia Reversal (Rating) (dose 1 mg/kg) | Percent Amnesia Reversal (Rating) (dose 10 mg/kg) | Percent Amnesia Reversal (Rating) (dose 100 mg/kg) | % Amnesia Reversal (dose 0.63 mg/kg) [%] | Rating (dose 0.63 mg/kg) | % Amnesia Reversal (dose 1.25 mg/kg) [%] | Rating (dose 1.25 mg/kg) | % Amnesia Reversal (dose 2.50 mg/kg) [%] | Rating (dose 2.50 mg/kg) | % Amnesia Reversal (dose 5.00 mg/kg) [%] | Rating (dose 5.00 mg/kg) | % Amnesia Reversal (dose 20.00 mg/kg) [%] | Rating (dose 20.00 mg/kg) | % Amnesia Reversal (dose 80.00 mg/kg) [%] | Rating (dose 80.00 mg/kg)
1 | Cc1nn(C)c(-n2c(CN3CCN(C)CC3)nc(C)c2C)c1C(=O)c1ccccc1Cl [Example 4, (2-Chlorophenyl)[1,3-dimethyl-5-[4,5-dimethyl-2-[(4-mthyl-piperazin-1-yl)methyl]-1H-imidazol-1-yl]-1H-pyrazol-4-yl]methanone] | 36 | 91 | 54 | C (25 to 39 percent (borderline = C)) | A (40 percent or more (active = A)) | A (40 percent or more (active = A)) |  |  |  |  |  |  |  |  |  |  |  | 
2 | Cc1nn(C)c(-n2ccnc2CN2CCCC2)c1C(=O)c1ccccc1Cl [Example 3, (2-chlorophenyl)-[1,3-dimethyl-5-[2-(1-pyrrolidinylmethyl)-1H-imidazol--yl]-1H-pyrazol-4-yl]methanone dihydrochloride] | 79 | 27 | 25 | A (40 percent or more (active = A)) | C (25 to 39 percent (borderline = C)) | C (25 to 39 percent (borderline = C)) |  |  |  |  |  |  |  |  |  |  |  | 
3 | Cc1nn(C)c(-n2c(C)cnc2CN(C)C)c1C(=O)c1ccccc1Cl [Example 2] | 64 | 64 | 85 | A (40 percent or more (active = A)) | A (40 percent or more (active = A)) | A (40 percent or more (active = A)) |  |  |  |  |  |  |  |  |  |  |  | 
4 | Cc1nn(C)c(-n2c(C)cnc2CN)c1C(=O)c1ccccc1Cl [Example 1, [5-((2-aminomethyl)-5-methyl-lH-imidazol-1-yl)-1,3-dimethyl-1H-pyrazol-4-yl] (2-chlorophenyl) methanone dihydrochloride] |  |  |  |  |  |  | 20 | N (0 to 29 percent (inactive = N)) | 40 | A (40 percent or more (active = A)) | 40 | A (40 percent or more (active = A)) | 62 | A (40 percent or more (active = A)) | 87 | A (40 percent or more (active = A)) | 44 | A (40 percent or more (active = A))
